Reference: US20240228547A1, “POLYPEPTIDE FOR RESISTING NOVEL CORONAVIRUS AND APPLICATION THEREOF” (INSTITUTE OF MICROBIOLOGY, CHINESE ACADEMY OF SCIENCES, priority 2021, published 2024)

Tested on: pseudovirus of SARS-CoV-2 original strain (SARS-CoV-2 WT)
Conditions: for IC50: read-out: IC50, inhibitory effect on pseudovirus, Hela hACE2 cells

## CC[C@H](C)[C@H](NC(=O)CNC(=O)[C@H](CO)NC(=O)[C@@H](NC(=O)[C@H](CC(=O)O)NC(=O)CNC(=O)[C@H](Cc1ccccc1)NC(=O)[C@H](CCCCN)NC(=O)[C@@H](N)C(C)C)[C@@H](C)CC)C(=O)N[C@@H](CC(N)=O)C(=O)N[C@@H](C)C(=O)N[C@@H](CO)C(=O)N[C@H](C(=O)N[C@H](C(=O)N[C@@H](CC(N)=O)C(=O)N[C@H](C(=O)N[C@@H](CCCCN)C(=O)N[C@@H](CCC(=O)O)C(=O)N[C@@H](CCC(=O)O)C(=O)N[C@H](C(=O)N[C@@H](CC(=O)O)C(=O)N[C@@H](CCCNC(=N)N)C(=O)N[C@@H](CC(C)C)C(=O)N[C@@H](Cc1ccc(O)cc1)C(=O)N[C@@H](CCC(=O)O)C(=O)N[C@H](C(=O)N[C@H](C(=O)N[C@@H](CCCCN)C(=O)N[C@@H](CC(N)=O)C(=O)N[C@@H](CC(C)C)C(=O)N[C@@H](CC(N)=O)C(=O)N[C@@H](CCC(=O)O)C(=O)N[C@@H](CO)C(=O)N[C@@H](CC(C)C)C(=O)N[C@H](C(=O)N[C@@H](CC(=O)O)C(=O)N[C@@H](CC(C)C)C(=O)N[C@@H](CCC(N)=O)C(=O)N[C@@H](CCC(=O)O)C(=O)N[C@@H](CC(C)C)C(=O)O)[C@@H](C)CC)C(C)C)C(C)C)[C@@H](C)CC)[C@@H](C)CC)C(C)C)C(C)C [Polypeptide P3-3]
  Increase multiple (fold increase in the inhibitory effect compared to the polypeptide P3): 3.4
  IC50: 230 nM

## CC[C@H](C)[C@H](N)C(=O)N[C@@H](CO)C(=O)NCC(=O)N[C@H](C(=O)N[C@@H](CC(N)=O)C(=O)N[C@@H](C)C(=O)N[C@@H](CO)C(=O)N[C@H](C(=O)N[C@H](C(=O)N[C@@H](CC(N)=O)C(=O)N[C@H](C(=O)N[C@@H](CCCCN)C(=O)N[C@@H](CCC(=O)O)C(=O)N[C@@H](CCC(=O)O)C(=O)N[C@H](C(=O)N[C@@H](CC(=O)O)C(=O)N[C@@H](CCCNC(=N)N)C(=O)N[C@@H](CC(C)C)C(=O)N[C@@H](CC(N)=O)C(=O)N[C@@H](CCC(=O)O)C(=O)N[C@H](C(=O)N[C@@H](C)C(=O)N[C@@H](CCCCN)C(=O)N[C@@H](CC(N)=O)C(=O)N[C@@H](CC(C)C)C(=O)N[C@@H](CC(N)=O)C(=O)N[C@@H](CCC(=O)O)C(=O)N[C@@H](CO)C(=O)N[C@@H](CC(C)C)C(=O)N[C@H](C(=O)N[C@@H](CC(=O)O)C(=O)N[C@@H](CC(C)C)C(=O)N[C@@H](CCC(N)=O)C(=O)N[C@@H](CCC(=O)O)C(=O)N[C@@H](CC(C)C)C(=O)O)[C@@H](C)CC)C(C)C)[C@@H](C)CC)[C@@H](C)CC)C(C)C)C(C)C)[C@@H](C)CC [Polypeptide P3-4]
  Increase multiple (fold increase in the inhibitory effect compared to the polypeptide P3): 3.3
  IC50: 240 nM

## CC[C@H](C)[C@H](N)C(=O)N[C@@H](CO)C(=O)NCC(=O)N[C@H](C(=O)N[C@@H](CC(N)=O)C(=O)N[C@@H](C)C(=O)N[C@@H](CO)C(=O)N[C@H](C(=O)N[C@H](C(=O)N[C@@H](CC(N)=O)C(=O)N[C@H](C(=O)N[C@@H](CCC(N)=O)C(=O)N[C@@H](CCCCN)C(=O)N[C@@H](CCC(=O)O)C(=O)N[C@H](C(=O)N[C@@H](CC(=O)O)C(=O)N[C@@H](CCCNC(=N)N)C(=O)N[C@@H](CC(C)C)C(=O)N[C@@H](CC(N)=O)C(=O)N[C@@H](CCC(=O)O)C(=O)N[C@H](C(=O)N[C@@H](C)C(=O)N[C@@H](CCCCN)C(=O)N[C@@H](CCC(=O)O)C(=O)N[C@@H](CC(C)C)C(=O)N[C@@H](CC(N)=O)C(=O)N[C@@H](CCC(=O)O)C(=O)N[C@@H](CO)C(=O)N[C@@H](CC(C)C)C(=O)N[C@H](C(=O)N[C@@H](CC(=O)O)C(=O)N[C@@H](CC(C)C)C(=O)N[C@@H](CCC(N)=O)C(=O)N[C@@H](CCC(=O)O)C(=O)N[C@@H](CC(C)C)C(=O)O)[C@@H](C)CC)C(C)C)[C@@H](C)CC)[C@@H](C)CC)C(C)C)C(C)C)[C@@H](C)CC [Polypeptide P3-5]
  Increase multiple (fold increase in the inhibitory effect compared to the polypeptide P3): 0.5
  IC50: 1590 nM
